Data from patent US6916484B1, “Aqueous pharmaceutical composition containing moxifloxacin or salts thereof” (Bayer Aktiengesellschaft, priority 1999, dated 2005).
Structures can show the parent of a compound that is named as a salt.

Assay: Saturation solubility of moxifloxacin hydrochloride in water
Assay type: physicochemical
Conditions: aqueous solution, room temperature
Protocol: Accordingly, freshly prepared solutions of moxifloxacin with sugars and/or sugar alcohols have, even if they have relatively high iron contents, a sufficient stability against the formation of particles for the period of use of, preferably, up to 12 hours after preparation. Thus, the problem to be solved by the invention can also be overcome by iron-containing solutions for infusion which are used immediately after preparation. Here, it is expedient to use a process in which a pre-formed concentrated aqueous solution of moxifloxacin or a salt thereof and a pre-formed solution of the sugar and/or the sugar alcohols are mixed with one another. […] The concentrated aqueous solution of moxifloxacin id hydrochloride preferably contains from 0.4% (w/v) to 2.4% (w/v) of moxifloxacin (calculated as betaine). […] The active compound concentrate preferably comprises from 1.0 to 2.0% (w/v) of moxifloxacin (calculated as betaine), particularly preferably 2.0% (w/v) of moxifloxacin (calculated as betaine). […]

saturation solubility: about 2.4 % (w/v)
SMILES: COc1c(N2C[C@@H]3CCCN[C@@H]3C2)c(F)cc2c(=O)c(C(=O)O)cn(C3CC3)c12 [moxifloxacin hydrochloride, 1-cyclopropyl-7-([S,S]-2,8-diazabicyclo[4.3.0]non-8-yl)-6-fluoro-1,4-dihydro-8-methoxy-4-oxo-3-quinolonecarboxylic acid]
